Measurements from patent US20150105252A1, “SUBSTITUTED PYRAZOLES AS HERBICIDES” (E I DU PONT DE NEMOURS AND COMPANY, priority 2013, published 2015).

Experiments:
Test in all cases: Test F preemergence
velvetleaf = format: in vivo, Abutilon theophrasti
Description: (§1) Seeds of plant species selected from corn (Zea mays), soybean (Glycine max), velvetleaf (Abutilon theophrasti), lambsquarters (Chenopodium album), wild poinsettia (Euphorbia heterophylla), pigweed, palmer (palmer pigweed, Amaranthus palmeri), common waterhemp (Amaranthus rudis), surinam grass (Brachiaria decumbens), large crabgrass (Digitaria sanguinalis), crabgrass, Brazil (Brazilian crabgrass, Digitaria horizontalis), fall panicum (Panicum dichotomiflorum), giant foxtail (Setaria faberii), green foxtail (Setaria viridis), goosegrass (Eleusine indica), johnsongrass (Sorghum halepense), common ragweed (Ambrosia elation), barnyardgrass (Echinochloa crus-galli), southern sandbur (Cenchrus echinatus), arrowleaf sida (Sida rhombifolia), Italian ryegrass (Lolium multiflorum), dayflower, VA (Virginia (VA) dayflower, Commelina virginica), field bindweed (Convolvulus arvensis), cocklebur (common cocklebur, Xanthium strumarium), morningglory (Ipomoea coccinea), nightshade (eastern black nightshade, Solanum ptycanthum), kochia (Kochia scoparia), yellow nutsedge (Cyperus esculentus), and hairy beggarticks (Bidens pilosa), were planted into a silt loam soil and treated preemergence with test chemicals formulated in a non-phytotoxic solvent mixture which included a surfactant.
(§2) At the same time, plants from these crop and weed species and also horseweed (Canada horseweed, Conyza canadensis), smartweed (ladysthumb smartweed, Polygonum persicaria), waterhemp_RES1, (ALS & Triazine resistant common waterhemp, Amaranthus rudis), and waterhemp_RES2, (ALS & HPPD resistant common waterhemp, Amaranthus rudis) were treated with postemergence applications of test chemicals formulated in the same manner. Plants ranged in height from 2 to 18 cm for postemergence treatments (1- to 4-leaf stage). Treated plants and controls were maintained in a greenhouse for 14 to 21 days, after which time all species were compared to controls and visually evaluated. Plant response ratings, summarized in Table F, are based on a scale of 0 to 100 where 0 is no effect and 100 is complete control. A dash (-) response means no test result.

common waterhemp = format: in vivo, Amaranthus rudis
Description: as §1, §2

arrowleaf sida = format: in vivo, Sida rhombifolia
Description: as §1, §2

pigweed, palmer = format: in vivo, Amaranthus palmeri
Description: as §1, §2

yellow nutsedge = format: in vivo, Cyperus esculentus
Description: as §1, §2

dayflower, VA = format: in vivo, Commelina virginica
Description: as §1, §2

[1] = Preemergence, 31 g ai/ha, scale 0 to 100
[2] = Preemergence, 62 g ai/ha, scale 0 to 100
[3] = Preemergence, 125 g ai/ha, scale 0 to 100
[4] = preemergence, 8 g ai/ha, scale 0 to 100, 100 is complete control
[5] = preemergence, 16 g ai/ha, scale 0 to 100, 100 is complete control
[6] = preemergence, scale 0 to 100, 100 is complete control
[7] = Preemergence, 16 g ai/ha, scale 0 to 100
[8] = Preemergence, 250 g ai/ha, scale 0 to 100

CCOc1cc(C(=O)NCC(F)(F)F)nn1Cc1ccnc(C(F)(F)F)c1 [Compound 104]
Plant response rating, Velvetleaf (velvetleaf; [1]): 50
Plant response rating, Velvetleaf (velvetleaf; [2]): 95
Plant response rating, Velvetleaf (velvetleaf; [3]): 100
Plant response rating, Velvetleaf (velvetleaf; [4]): 0
Plant response rating, Velvetleaf (velvetleaf; [5]): 0
Plant response rating, Common Waterhemp (common waterhemp; [1]): 100
Plant response rating, Common Waterhemp (common waterhemp; [2]): 100
Plant response rating, Common Waterhemp (common waterhemp; [3]): 100
Plant response rating, Common Waterhemp (common waterhemp; [4]): 65
Plant response rating, Common Waterhemp (common waterhemp; [5]): 98
Plant response rating, Arrowleaf Sida (arrowleaf sida; [1]): 10
Plant response rating, Arrowleaf Sida (arrowleaf sida; [2]): 20
Plant response rating, Arrowleaf Sida (arrowleaf sida; [3]): 30
Plant response rating, Arrowleaf Sida (arrowleaf sida; [4]): 0
Plant response rating, Arrowleaf Sida (arrowleaf sida; [5]): 0
Plant response rating, Pigweed, Palmer (pigweed, palmer; [1]): 50
Plant response rating, Pigweed, Palmer (pigweed, palmer; [2]): 50
Plant response rating, Pigweed, Palmer (pigweed, palmer; [3]): 100
Plant response rating, Pigweed, Palmer (pigweed, palmer; [4]): 0
Plant response rating, Pigweed, Palmer (pigweed, palmer; [5]): 0
Plant response rating, Yellow Nutsedge (yellow nutsedge; [1]): 25
Plant response rating, Yellow Nutsedge (yellow nutsedge; [2]): 60
Plant response rating, Yellow Nutsedge (yellow nutsedge; [3]): 75
Plant response rating, Yellow Nutsedge (yellow nutsedge; [4]): 0
Plant response rating, Yellow Nutsedge (yellow nutsedge; [5]): 0
Plant response rating, Dayflower, VA (dayflower, VA; [1]): 50
Plant response rating, Dayflower, VA (dayflower, VA; [2]): 98
Plant response rating, Dayflower, VA (dayflower, VA; [3]): 100
Plant response rating, Dayflower, VA (dayflower, VA; [4]): 0
Plant response rating, Dayflower, VA (dayflower, VA; [5]): 0

CCNC(=O)c1cc(CCCl)n(Cc2ccnc(C(F)(F)F)c2)n1 [Compound 179]
Plant response rating, Velvetleaf (velvetleaf; [1]): 0
Plant response rating, Velvetleaf (velvetleaf; [2]): 20
Plant response rating, Velvetleaf (velvetleaf; [3]): 40
Plant response rating, Velvetleaf (velvetleaf; [4]): 0
Plant response rating, Common Waterhemp (common waterhemp; [1]): 0
Plant response rating, Common Waterhemp (common waterhemp; [2]): 25
Plant response rating, Common Waterhemp (common waterhemp; [3]): 75
Plant response rating, Common Waterhemp (common waterhemp; [4]): 0
Plant response rating, Arrowleaf Sida (arrowleaf sida; [1]): 0
Plant response rating, Arrowleaf Sida (arrowleaf sida; [2]): 0
Plant response rating, Arrowleaf Sida (arrowleaf sida; [3]): 35
Plant response rating, Arrowleaf Sida (arrowleaf sida; [4]): 0
Plant response rating, Pigweed, Palmer (pigweed, palmer; [1]): 0
Plant response rating, Pigweed, Palmer (pigweed, palmer; [2]): 35
Plant response rating, Pigweed, Palmer (pigweed, palmer; [3]): 100
Plant response rating, Pigweed, Palmer (pigweed, palmer; [4]): 0
Plant response rating, Yellow Nutsedge (yellow nutsedge; [1]): 0
Plant response rating, Yellow Nutsedge (yellow nutsedge; [2]): 10
Plant response rating, Yellow Nutsedge (yellow nutsedge; [3]): 60
Plant response rating, Yellow Nutsedge (yellow nutsedge; [4]): 0
Plant response rating, Dayflower, VA (dayflower, VA; [1]): 0
Plant response rating, Dayflower, VA (dayflower, VA; [2]): 10
Plant response rating, Dayflower, VA (dayflower, VA; [3]): 40
Plant response rating, Dayflower, VA (dayflower, VA; [4]): 0

CCNC(=O)c1cc(CC)n(Cc2ccnc(C(F)(F)F)c2)n1 [Compound 196]
Plant response rating, Velvetleaf (velvetleaf; [2]): 20
Plant response rating, Velvetleaf (velvetleaf; [3]): 35
Plant response rating, Velvetleaf (velvetleaf; [4]): 0
Plant response rating, Velvetleaf (velvetleaf; [5]): 0
Plant response rating, Velvetleaf (velvetleaf; [6]): 0
Plant response rating, Common Waterhemp (common waterhemp; [7]): 50
Plant response rating, Common Waterhemp (common waterhemp; [2]): 75
Plant response rating, Common Waterhemp (common waterhemp; [3]): 100
Plant response rating, Common Waterhemp (common waterhemp; [4]): 0
Plant response rating, Common Waterhemp (common waterhemp; [5]): 35
Plant response rating, Arrowleaf Sida (arrowleaf sida; [7]): 0
Plant response rating, Arrowleaf Sida (arrowleaf sida; [2]): 5
Plant response rating, Arrowleaf Sida (arrowleaf sida; [3]): 70
Plant response rating, Arrowleaf Sida (arrowleaf sida; [4]): 0
Plant response rating, Arrowleaf Sida (arrowleaf sida; [5]): 0
Plant response rating, Pigweed, Palmer (pigweed, palmer; [2]): 100
Plant response rating, Pigweed, Palmer (pigweed, palmer; [3]): 100
Plant response rating, Pigweed, Palmer (pigweed, palmer; [4]): 0
Plant response rating, Pigweed, Palmer (pigweed, palmer; [5]): 0
Plant response rating, Yellow Nutsedge (yellow nutsedge; [2]): 20
Plant response rating, Yellow Nutsedge (yellow nutsedge; [3]): 50
Plant response rating, Yellow Nutsedge (yellow nutsedge; [4]): 0
Plant response rating, Yellow Nutsedge (yellow nutsedge; [5]): 0
Plant response rating, Dayflower, VA (dayflower, VA; [2]): 35
Plant response rating, Dayflower, VA (dayflower, VA; [3]): 75
Plant response rating, Dayflower, VA (dayflower, VA; [4]): 0
Plant response rating, Dayflower, VA (dayflower, VA; [5]): 0

Cc1cc(C(=O)NC(C)C)nn1Cc1ccnc(C(F)(F)F)c1 [Compound 197]
Plant response rating, Velvetleaf (velvetleaf; [2]): 15
Plant response rating, Velvetleaf (velvetleaf; [3]): 25
Plant response rating, Velvetleaf (velvetleaf; [4]): 0
Plant response rating, Velvetleaf (velvetleaf; [5]): 0
Plant response rating, Velvetleaf (velvetleaf; [6]): 0
Plant response rating, Common Waterhemp (common waterhemp; [7]): 65
Plant response rating, Common Waterhemp (common waterhemp; [2]): 65
Plant response rating, Common Waterhemp (common waterhemp; [3]): 85
Plant response rating, Common Waterhemp (common waterhemp; [4]): 20
Plant response rating, Common Waterhemp (common waterhemp; [5]): 60
Plant response rating, Arrowleaf Sida (arrowleaf sida; [7]): 5
Plant response rating, Arrowleaf Sida (arrowleaf sida; [2]): 5
Plant response rating, Arrowleaf Sida (arrowleaf sida; [3]): 10
Plant response rating, Arrowleaf Sida (arrowleaf sida; [4]): 0
Plant response rating, Arrowleaf Sida (arrowleaf sida; [5]): 5
Plant response rating, Pigweed, Palmer (pigweed, palmer; [2]): 95
Plant response rating, Pigweed, Palmer (pigweed, palmer; [3]): 90
Plant response rating, Pigweed, Palmer (pigweed, palmer; [4]): 10
Plant response rating, Pigweed, Palmer (pigweed, palmer; [5]): 35
Plant response rating, Yellow Nutsedge (yellow nutsedge; [2]): 5
Plant response rating, Yellow Nutsedge (yellow nutsedge; [3]): 25
Plant response rating, Yellow Nutsedge (yellow nutsedge; [4]): 0
Plant response rating, Yellow Nutsedge (yellow nutsedge; [5]): 0
Plant response rating, Dayflower, VA (dayflower, VA; [2]): 0
Plant response rating, Dayflower, VA (dayflower, VA; [3]): 40
Plant response rating, Dayflower, VA (dayflower, VA; [4]): 0
Plant response rating, Dayflower, VA (dayflower, VA; [5]): 0

CCc1cc(C(=O)NC2CC2)nn1Cc1ccnc(OCC(F)(F)F)c1 [Compound 200]
Plant response rating, Velvetleaf (velvetleaf; [8]): 85
Plant response rating, Velvetleaf (velvetleaf; [2]): 20
Plant response rating, Velvetleaf (velvetleaf; [3]): 80
Plant response rating, Velvetleaf (velvetleaf; [5]): 0
Plant response rating, Velvetleaf (velvetleaf; [6]): 0
Plant response rating, Common Waterhemp (common waterhemp; [8]): 100
Plant response rating, Common Waterhemp (common waterhemp; [7]): 0
Plant response rating, Common Waterhemp (common waterhemp; [2]): 20
Plant response rating, Common Waterhemp (common waterhemp; [3]): 100
Plant response rating, Arrowleaf Sida (arrowleaf sida; [8]): 80
Plant response rating, Arrowleaf Sida (arrowleaf sida; [7]): 0
Plant response rating, Arrowleaf Sida (arrowleaf sida; [2]): 5
Plant response rating, Arrowleaf Sida (arrowleaf sida; [3]): 35
Plant response rating, Arrowleaf Sida (arrowleaf sida; [5]): 0
Plant response rating, Pigweed, Palmer (pigweed, palmer; [8]): 85
Plant response rating, Pigweed, Palmer (pigweed, palmer; [2]): 0
Plant response rating, Pigweed, Palmer (pigweed, palmer; [3]): 95
Plant response rating, Pigweed, Palmer (pigweed, palmer; [5]): 0
Plant response rating, Yellow Nutsedge (yellow nutsedge; [8]): 35
Plant response rating, Yellow Nutsedge (yellow nutsedge; [2]): 0
Plant response rating, Yellow Nutsedge (yellow nutsedge; [3]): 25
Plant response rating, Yellow Nutsedge (yellow nutsedge; [5]): 0
Plant response rating, Dayflower, VA (dayflower, VA; [8]): 60
Plant response rating, Dayflower, VA (dayflower, VA; [2]): 0
Plant response rating, Dayflower, VA (dayflower, VA; [3]): 10
Plant response rating, Dayflower, VA (dayflower, VA; [5]): 0
